The series relates to CCRIS mutagenicity, Ames/micronucleus/aberration tests. Put plainly: CCRIS mutagenicity studies.
[1] abbreviates: Test System: AMES SALMONELLA TYPHIMURIUM, Strain/Indicator: TA98, Metabolic Activation: NONE, Method: PREINCUBATION
The mark [2] stands for this setting: Test System: AMES SALMONELLA TYPHIMURIUM, Strain/Indicator: TA98, Metabolic Activation: NONE, Method: STANDARD PLATE.
The mark [3] stands for this setting: Test System: AMES SALMONELLA TYPHIMURIUM, Strain/Indicator: TA98, Metabolic Activation: RAT, LIVER, S-9, Method: PREINCUBATION
[4] abbreviates: Test System: AMES SALMONELLA TYPHIMURIUM, Strain/Indicator: TA100, Metabolic Activation: NONE, Method: PREINCUBATION
[5] abbreviates: Test System: AMES SALMONELLA TYPHIMURIUM, Strain/Indicator: TA100, Metabolic Activation: RAT, LIVER, S-9, Method: PREINCUBATION

Four compounds from PubChem BioAssay AID1259407 (Chemical Carcinogenesis Research Information System (CCRIS), 2018) can be followed below.

Calls of active or inactive are those of the source. The rule behind the calls is not given here.

Take `CCN(CC)CCCC(C)Nc1ccnc2cc(Cl)ccc12` (configuration not stated): the mutagenic call was “active; positive” (Test System: AMES SALMONELLA TYPHIMURIUM, Strain/Indicator: TA97, Metabolic Activation: NONE, Method: STANDARD PLATE); “inactive; negative” (Test System: AMES SALMONELLA TYPHIMURIUM, Strain/Indicator: TA97A, Metabolic Activation: NONE, Method: STANDARD PLATE); “inactive; negative” (Test System: AMES SALMONELLA TYPHIMURIUM, Strain/Indicator: TA97A, Metabolic Activation: RAT LIVER S-9, PHENOBARBITAL, Method: STANDARD PLATE); “inactive; negative” (Test System: AMES SALMONELLA TYPHIMURIUM, Strain/Indicator: TA97A, Metabolic Activation: RAT, LIVER, S-9, AROCLOR 1254, Method: STANDARD PLATE); “inactive; negative” under setting [1]; “active; positive” under setting [2]. In addition, the mutagenic call runs as follows: (Test System: AMES SALMONELLA TYPHIMURIUM, Strain/Indicator: TA98, Metabolic Activation: RAT, LIVER, S-9, AROCLOR 1254 OR PHENOBARBITOL, Method: STANDARD PLATE) “active; positive”; (Test System: AMES SALMONELLA TYPHIMURIUM, Strain/Indicator: TA98, Metabolic Activation: RAT, LIVER, S-9, PCB, Method: STANDARD PLATE) “inactive; negative”; under setting [3], “inactive; negative”; under setting [4], “inactive; negative”; (Test System: AMES SALMONELLA TYPHIMURIUM, Strain/Indicator: TA100, Metabolic Activation: RAT LIVER S-9, PHENOBARBITAL, Method: STANDARD PLATE) “inactive; negative”; (Test System: AMES SALMONELLA TYPHIMURIUM, Strain/Indicator: TA100, Metabolic Activation: RAT, LIVER, S-9, AROCLOR 1254 OR PHENOBARBITOL, Method: STANDARD PLATE) “active; positive”. In addition, the mutagenic call runs as follows: (Test System: AMES SALMONELLA TYPHIMURIUM, Strain/Indicator: TA100, Metabolic Activation: RAT, LIVER, S-9, PCB, Method: STANDARD PLATE) “inactive; negative”; under setting [5], “inactive; negative”; (Test System: AMES SALMONELLA TYPHIMURIUM, Strain/Indicator: TA102, Metabolic Activation: NONE, Method: STANDARD PLATE) “inactive; negative”; (Test System: AMES SALMONELLA TYPHIMURIUM, Strain/Indicator: TA102, Metabolic Activation: RAT LIVER S-9, PHENOBARBITAL, Method: STANDARD PLATE) “inactive; negative”; (Test System: AMES SALMONELLA TYPHIMURIUM, Strain/Indicator: TA104, Metabolic Activation: NONE, Method: STANDARD PLATE) “inactive; negative”; (Test System: AMES SALMONELLA TYPHIMURIUM, Strain/Indicator: TA104, Metabolic Activation: RAT LIVER S-9, PHENOBARBITAL, Method: STANDARD PLATE) “inactive; negative”. Besides, the mutagenic call runs as follows: (Test System: AMES SALMONELLA TYPHIMURIUM, Strain/Indicator: TA1535, Metabolic Activation: NONE, Method: STANDARD PLATE) “inactive; negative”; (Test System: AMES SALMONELLA TYPHIMURIUM, Strain/Indicator: TA1535, Metabolic Activation: RAT, LIVER, S-9, AROCLOR 1254 OR PHENOBARBITOL, Method: STANDARD PLATE) “inactive; negative”; (Test System: AMES SALMONELLA TYPHIMURIUM, Strain/Indicator: TA1537, Metabolic Activation: NONE, Method: MICROFLUCTUATION) “active; positive”; (Test System: AMES SALMONELLA TYPHIMURIUM, Strain/Indicator: TA1537, Metabolic Activation: NONE, Method: STANDARD PLATE) “inactive; negative”; (Test System: AMES SALMONELLA TYPHIMURIUM, Strain/Indicator: TA1537, Metabolic Activation: RAT, LIVER, S-9, AROCLOR 1254, Method: STANDARD PLATE) “inactive; negative”; (Test System: AMES SALMONELLA TYPHIMURIUM, Strain/Indicator: TA1537, Metabolic Activation: RAT, LIVER, S-9, AROCLOR 1254 OR PHENOBARBITOL, Method: STANDARD PLATE) “inactive; negative”. Moreover, the mutagenic call runs as follows: (Test System: AMES SALMONELLA TYPHIMURIUM, Strain/Indicator: TA1537, Metabolic Activation: RAT, LIVER, S-9, PCB, Method: STANDARD PLATE) “inactive; negative”; (Test System: AMES SALMONELLA TYPHIMURIUM, Strain/Indicator: TA1538, Metabolic Activation: NONE, Method: STANDARD PLATE) “inactive; negative”; (Test System: AMES SALMONELLA TYPHIMURIUM, Strain/Indicator: TA1538, Metabolic Activation: RAT, LIVER, S-9, AROCLOR OR PHENOBARBITOL, Method: STANDARD PLATE) “inactive; negative”; (Test System: AMES SALMONELLA TYPHIMURIUM, Strain/Indicator: TA1538, Metabolic Activation: RAT, LIVER, S-9, PCB, Method: STANDARD PLATE) “inactive; negative”; (Test System: AMES SALMONELLA TYPHIMURIUM, Strain/Indicator: TA1977, Metabolic Activation: NONE, Method: MICROFLUCTUATION) “inactive; negative”; (Test System: E. COLI, Strain/Indicator: DG1669, Metabolic Activation: NONE, Method: STANDARD PLATE) “active; positive”. In addition, the mutagenic call is “active; positive” (Test System: E. COLI, Strain/Indicator: DG1669, Metabolic Activation: RAT, LIVER, S-9, AROCLOR 1254, Method: STANDARD PLATE) and “inactive; negative” (Test System: E. COLI, Strain/Indicator: WP2 UVRA, Metabolic Activation: RAT, LIVER, S-9, PCB, Method: STANDARD PLATE).

In the case of `O=[N+]([O-])c1cc([N+](=O)[O-])c2c3c(c4cccc5ccc1c2c54)CCCC3`, the mutagenic call is “active; positive” under setting [2] and “active; positive” (Test System: AMES SALMONELLA TYPHIMURIUM, Strain/Indicator: TA98, Metabolic Activation: RAT, LIVER, S-9, AROCLOR 1254, Method: STANDARD PLATE).

Take `Cc1cc2ccccc2c2cc([N+](=O)[O-])c3ccccc3c12`: the mutagenic call runs as follows: under setting [1], “active; positive”; under setting [3], “active; positive”; under setting [4], “active; positive”; under setting [5], “active; positive”.

Regarding `C=C1N(C)c2ccccc2C1(C)C`, the mutagenic call is “inactive; negative. reevaluation of results: negative” (Test System: MOUSE LYMPHOMA, Strain/Indicator: L5178Y (TK+/TK-), Metabolic Activation: NONE, Method: SUSPENSION/PLATE); “active; positive. reevaluation of results: positive” (Test System: MOUSE LYMPHOMA, Strain/Indicator: L5178Y (TK+/TK-), Metabolic Activation: RAT, LIVER, S-9, AROCLOR 1254, Method: SUSPENSION/PLATE); “inactive; negative” (Test System: Mouse lymphoma, Strain/Indicator: L5178Y (tk+/tk-), Metabolic Activation: None, Method: Suspension/plate); “active; positive” (Test System: Mouse lymphoma, Strain/Indicator: L5178Y (tk+/tk-), Metabolic Activation: Rat, Liver, S-9, Aroclor 1254, Method: Suspension/plate).
